Laboratory results: patent US5807886A, “Bicyclic amidine dervatives as inhibitors of nitric oxide synthetase” (priority 1994, dated 1998)

What was measured:
[1] = target: T1, endothelial nitric oxide synthetase (Homo sapiens, UniProt P29474); experiment: Screen C: endothelial nitric oxide synthetase inhibiting activity; type: biochemical
T1 construct: Enzyme may be isolated from human umbilical vein endothelial cells (HUVECs); endogenous in cells; host or cells: HUVECs (cells purchased from Clonetics Corp, San Diego); CHAPS-solubilised pellet supernatant
T1 sequence (P29474 2-1203): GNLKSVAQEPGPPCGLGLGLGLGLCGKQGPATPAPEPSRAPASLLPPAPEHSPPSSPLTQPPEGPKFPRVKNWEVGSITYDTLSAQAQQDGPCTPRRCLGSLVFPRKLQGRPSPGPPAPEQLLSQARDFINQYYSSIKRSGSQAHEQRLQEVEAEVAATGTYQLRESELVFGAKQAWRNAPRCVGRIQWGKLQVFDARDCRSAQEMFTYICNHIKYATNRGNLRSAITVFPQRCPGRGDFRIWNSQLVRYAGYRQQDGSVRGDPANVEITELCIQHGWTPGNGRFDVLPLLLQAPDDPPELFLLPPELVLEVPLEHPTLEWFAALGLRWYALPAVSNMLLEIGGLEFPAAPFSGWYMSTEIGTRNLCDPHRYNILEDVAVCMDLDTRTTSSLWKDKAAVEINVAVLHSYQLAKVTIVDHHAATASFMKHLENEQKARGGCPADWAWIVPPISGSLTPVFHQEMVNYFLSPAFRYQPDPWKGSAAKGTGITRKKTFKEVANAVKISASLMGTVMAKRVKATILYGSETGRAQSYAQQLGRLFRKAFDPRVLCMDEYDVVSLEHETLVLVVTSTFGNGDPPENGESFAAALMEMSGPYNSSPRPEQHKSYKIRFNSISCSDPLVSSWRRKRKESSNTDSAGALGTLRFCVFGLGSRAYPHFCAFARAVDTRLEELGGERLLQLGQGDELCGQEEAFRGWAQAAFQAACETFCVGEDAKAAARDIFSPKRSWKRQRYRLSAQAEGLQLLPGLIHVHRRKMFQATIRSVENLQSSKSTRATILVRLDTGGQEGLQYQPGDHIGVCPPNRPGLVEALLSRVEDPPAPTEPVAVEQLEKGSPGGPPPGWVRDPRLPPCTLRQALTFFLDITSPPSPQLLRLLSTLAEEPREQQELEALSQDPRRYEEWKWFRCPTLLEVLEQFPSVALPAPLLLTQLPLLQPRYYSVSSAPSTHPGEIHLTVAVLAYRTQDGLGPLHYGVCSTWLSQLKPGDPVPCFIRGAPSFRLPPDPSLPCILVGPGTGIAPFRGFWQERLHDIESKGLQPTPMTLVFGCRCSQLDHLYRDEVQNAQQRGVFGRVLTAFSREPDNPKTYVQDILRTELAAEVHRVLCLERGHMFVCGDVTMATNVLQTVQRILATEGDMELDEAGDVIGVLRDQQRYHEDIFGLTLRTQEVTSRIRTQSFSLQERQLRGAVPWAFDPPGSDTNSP
Experimental: HUVECs were purchased from Clonetics Corp (San Diego, Calif. USA) and cultured to confluency. Cells can be maintained to passage 35-40 without significant loss of yield of nitric oxide synthetase. When cells reach confluency, they are resuspended in Dulbecco's phosphate buffered saline, centrifuged at 800 rpm for 10 mins, the cell pellet homogenised in ice-cold 50 mM Tris-HCl , 1 mM EDTA, 10% glycerol, 1 mM phenylmethylsulphonylfluoride, 2 μM leupeptin at pH 4.2. Following centrifugation at 34,000 rpm for 60 mins, the pellet is solubilised in the homogenisation buffer which also contains 20 mM CHAPS. After a 30 min incubation on ice, the suspension is centrifuged at 34,000 rpm for 30 mins. The resulting supernatant is stored at -80° C. until use. […]
Labelled L-citrulline is separated from labelled L-arginine by chromatography over a Dowex AG-50W-X8 200-400 mesh column. […] The L-citrulline is then quantified by scintillation counting. […]

[2] = target: T2, neuronal nitric oxide synthetase (Rattus norvegicus, UniProt P29476); experiment: Screen A: neuronal nitric oxide synthetase inhibiting activity; type: biochemical; conditions: enzyme from rat hippocampus or cerebellum; 22° C., pH 7.4, 10 minutes; read-out: IC50 in Screen A (neuronal isoform)
T2 construct: Enzyme was isolated from rat hippocampus or cerebellum; from tissue; host or cells: male Sprague-Dawley rat cerebellum or hippocampus, 20,000 g supernatant
T2 sequence (P29476 whole entry, canonical isoform): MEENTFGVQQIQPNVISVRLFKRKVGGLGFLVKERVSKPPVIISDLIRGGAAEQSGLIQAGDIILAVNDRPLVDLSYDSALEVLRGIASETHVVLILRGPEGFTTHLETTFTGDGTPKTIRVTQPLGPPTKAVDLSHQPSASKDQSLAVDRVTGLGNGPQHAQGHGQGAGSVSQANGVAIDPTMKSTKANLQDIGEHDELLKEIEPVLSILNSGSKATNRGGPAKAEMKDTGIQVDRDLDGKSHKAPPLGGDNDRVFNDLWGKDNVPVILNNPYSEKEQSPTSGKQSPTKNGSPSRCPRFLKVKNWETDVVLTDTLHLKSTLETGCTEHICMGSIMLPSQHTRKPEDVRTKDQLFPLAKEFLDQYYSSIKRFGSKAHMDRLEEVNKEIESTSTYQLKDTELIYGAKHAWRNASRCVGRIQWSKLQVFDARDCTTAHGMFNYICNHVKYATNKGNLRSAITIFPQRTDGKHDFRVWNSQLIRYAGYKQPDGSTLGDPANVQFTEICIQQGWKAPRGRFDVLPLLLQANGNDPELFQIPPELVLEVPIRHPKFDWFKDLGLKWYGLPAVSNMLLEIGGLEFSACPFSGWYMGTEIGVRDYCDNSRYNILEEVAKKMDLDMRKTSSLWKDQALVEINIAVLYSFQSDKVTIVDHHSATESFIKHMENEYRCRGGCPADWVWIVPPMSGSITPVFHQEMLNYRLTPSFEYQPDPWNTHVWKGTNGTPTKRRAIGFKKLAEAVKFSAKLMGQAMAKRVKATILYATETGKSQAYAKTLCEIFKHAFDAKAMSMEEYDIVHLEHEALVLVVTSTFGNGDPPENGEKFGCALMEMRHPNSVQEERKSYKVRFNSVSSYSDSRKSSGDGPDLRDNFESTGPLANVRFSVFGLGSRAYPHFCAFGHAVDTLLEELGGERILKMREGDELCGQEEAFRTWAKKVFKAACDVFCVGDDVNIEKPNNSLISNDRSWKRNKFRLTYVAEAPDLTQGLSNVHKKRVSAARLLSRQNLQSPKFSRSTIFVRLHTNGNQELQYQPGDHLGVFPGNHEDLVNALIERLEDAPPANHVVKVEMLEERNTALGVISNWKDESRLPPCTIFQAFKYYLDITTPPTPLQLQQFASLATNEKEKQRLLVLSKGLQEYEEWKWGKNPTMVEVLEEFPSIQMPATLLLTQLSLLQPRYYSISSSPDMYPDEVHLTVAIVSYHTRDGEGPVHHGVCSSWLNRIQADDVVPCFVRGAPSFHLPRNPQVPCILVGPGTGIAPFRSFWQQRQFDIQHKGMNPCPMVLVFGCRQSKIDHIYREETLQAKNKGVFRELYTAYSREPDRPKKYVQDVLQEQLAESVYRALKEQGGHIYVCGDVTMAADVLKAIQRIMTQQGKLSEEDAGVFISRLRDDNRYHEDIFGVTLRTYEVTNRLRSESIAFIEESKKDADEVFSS
Experimental: Enzyme was isolated from rat hippocampus or cerebellum. The cerebellum or hippocampus of a male Sprague-Dawley rat (250-275 g) is removed following CO2 anaesthesia of the animal and decapitation. Cerebellar or hippocampal supernatant is prepared by homogenisation in 50 mM Tris-HCl with 1 mM EDTA buffer (pH 7.2 at 25° C.) and centifugation for 15 minutes at 20,000 g. Residual L-arginine is removed from the supernatant by chromatography through Dowex AG-50W-X8 sodium form and hydrogen form columns successively, and further centrifugation at 1000 g for 30 seconds. […]
Labelled L-citrulline is separated from labelled L-arginine by chromatography over a Dowex AG-50W-X8 200-400 mesh column. 1 ml of each terminated reaction is added to an individual 1 ml column and the eluant combined with that from two 1 ml distilled water washes and 16 ml of scintillation cocktail The L-citrulline is then quantified by scintillation counting. […]

[3] = target: T3, macrophage nitric oxide synthetase (Mus musculus, UniProt P29477); experiment: Screen B: macrophage nitric oxide synthetase inhibiting activity; type: biochemical, murine; conditions: macrophage IC50 / neuronal IC50
T3 construct: Enzyme is prepared, after induction, from the cultured murine macrophage cell line J774A-1; endogenous in cells; host or cells: J774A-1 murine macrophages induced with LPS and IFN-gamma (lysate); cells from laboratories of the Imperial Cancer Research Fund
Text: The enzyme nitric oxide synthetase has a number of isoforms and compounds of formula I, or pharmaceutically acceptable salts thereof, may be screened for nitric oxide synthetase inhibiting activity by procedures based on those of Bredt and Snyder in Proc. Natl. Acad. Sci. (1990) 87, 682-685 and Forstermann et. al., Eur. J. Pharm. (1992) 225, 161-165 as follows. Nitric oxide synthetase converts ^3 H-L-arginine to ^3 H-L-citrulline which can be separated by cation exchange chromatography and quantified by scintillation counting.
Enzyme is prepared, after induction, from the cultured murine macrophage cell line J774A-1 (obtained from laboratories of the Imperial Cancer Research Fund).
J774A-1 cells are cultured in Dulbecco's Modified Eagles Medium (DMEM) supplemented with 10% foetal bovine serum, 4 mM L-glutamine and antibiotics (100 units/ml penicillin G, 100 μg/ml streptomycin & 0.25 μg/ml amphotericin B).
Cells are routinely grown in 225 cm^2 flasks containing 35 ml medium kept at 37° C. and in a humidified atmosphere containing 5% CO2.
Nitric oxide synthetase is produced by cells in response to interferon-γ (IFNγ) and lipopolysaccharide (LPS). […]
Labelled L-citrulline is separated from labelled L-arginine using Dowex AG-50W. […] After allowing the samples to dry the L-citrulline is quantified by scintillation counting. […]

| Compound | IC50 in Screen C relative to that obtained in Screen A (selectivity) ([1]; endothelial IC50 / neuronal IC50) | IC50 [2] [µM] | IC50 in Screen B relative to that obtained in Screen A (selectivity) [3] | inhibition at 1 µM ([1]; at a concentration of 1 μM, HUVEC enzyme, read-out: inhibition of nitric oxide synthetase (reference standard, Screen C)) [%] |
| --- | --- | --- | --- | --- |
| N=C(Nc1ccc2c(c1)CC(NCc1ccccc1)C2)c1cccs1 (stereo not shown) [Example 1, N-((2-(Phenylmethyl)amino)indan-5-yl)-2-thiophenecarboximidamide dioxalate] | more than 10 times | < 10 | more than 10 times |  |
| N=C(NCCC[C@H](N)C(=O)O)N[N+](=O)[O-] [N-nitro-L-arginine, reference compound] |  |  |  | 70 to 90 |
